Data published in patent US20100094407A1, “Multiple Bioactive Agent Eluting Stents” (Medtronic Vascular, Inc., priority 2008, published 2010).

Test: Elution of fluocinolone and zotarolimus from coated stents, Example 1
Format: physicochemical
Conditions: 60 μg zotarolimus with or without 80 μg fluocinolone; FIG. 4
From the text: In one embodiment, the present disclosure relates to a multiple bioactive agent eluting stent comprising a stent framework, at least two bioactive agents on the stent framework, wherein one or more of the at least two bioactive agents affects the elution rate of one or more of the other of the at least two bioactive agents. The elution rate or profile of the bioactive agents can be determined utilizing the methods showing in Examples 1 and 2 below. For example, total cumulative release of applied bioactive agents can be measured to determine total daily release and also release over a period of time greater than one day. The at least two bioactive agents may be applied together onto a stent framework. There may be one coating which contains all of the bioactive agents. Alternatively, the bioactive agents can be applied to the stent framework in separate coatings. Each coating may contain just one bioactive agent or more than one bioactive agent. The coatings may constitute separate layers. There can also be a base layer and cap layer on the stent framework. Base layer is located closest to the stent framework and the cap layer is a layer which is located furthest away from the stent framework. The layers can be uniform or non-uniform, meaning the layers can be in the form of, for example, dots or stripes or other non-uniform patterns.
12 mm parylene coated stents were used for all builds. […]

## CO[C@H]1C[C@@H]2CC[C@@H](C)[C@@](O)(O2)C(=O)C(=O)N2CCCC[C@H]2C(=O)O[C@H]([C@H](C)C[C@@H]2CC[C@H](n3cnnn3)[C@H](OC)C2)CC(=O)[C@H](C)/C=C(\C)[C@@H](O)[C@@H](OC)C(=O)[C@H](C)C[C@H](C)/C=C/C=C/C=C/1C [zotarolimus]
  zotarolimus elution rate / total cumulative release, combination with fluocinolone vs zotarolimus alone: increased
